In US20060069132A1, “Azolecarboxamide herbicides” (priority 2004, published 2006):
Like-named read-outs stand apart in the source and are kept apart here.

Columns and labels:
[1] = system: pigweed; experiment: Test C pre-/postemergence herbicide test; type: in vivo, Amaranthus retroflexus; conditions: preemergence
From the text: (§1) Seeds of plant species selected from bermudagrass (Cynodon dactylon (L.) Pers.), Surinam grass (Urochloa decumbens (Staph) R. D. Webster, previously named Brachiaria decumbens Stapf), cocklebur (Xanthium strumarium L.), corn (Zea mays L.), large crabgrass (Digitaria sanguinalis (L.) Scop.), woolly cupgrass (Eriochloa villosa (Thunb.) Kunth), giant foxtail (Setaria faberi Herrm.), goosegrass (Eleusine indica (L.) Gaertn.), johnsongrass (Sorghum halepense (L.) Pers.), kochia (Kochia scoparia (L.) Schrad.), lambsquarters (Chenopodium album L.), morningglory (Ipomoea coccinea L.), eastern black nightshade (Solanum ptycanthum Dunal), yellow nutsedge (Cyperus esculentus L.), pigweed (Amaranthus retroflexus L.), common ragweed (Ambrosia elatior L.), soybean (Glycine max (L.) Merr.), common (oilseed) sunflower (Helianthus annuus L.) and velvetleaf (Abutilon theophrasti Medik.) were planted and treated preemergence with test chemicals formulated in a non-phytotoxic solvent mixture which included a surfactant.
(§2) At the same time, plants selected from these crop and weed species and also winter barley (Hordeum vulgare L.), blackgrass (Alopecurus myosuroides Huds.), canarygrass (Phalaris minor Retz.), chickweed (Stellaria media (L.) Vill.), downy bromegrass (Bromus tectorum L.), green foxtail (Setaria viridis (L.) Beauv.), Italian ryegrass (Lolium multiflorum Lam.), wheat (Triticum aestivum L.), wild oat (Avenafatua L.) and windgrass (Apera spica-venti (L.) Beauv.) were treated with postemergence applications of some of the test chemicals formulated in the same manner. Plants ranged in height from 2 to 18 cm (1- to 4-leaf stage) for postemergence treatments. Plant species in the flooded paddy test consisted of rice (Oryza sativa), smallflower umbrella sedge (Cyperus difformis L.), ducksalad (Heteranthera limosa (Sw.) Willd.) and barnyardgrass (Echinochloa crus-galli (L.) Beauv.) grown to the 2-leaf stage for testing. Treated plants and controls were maintained in a greenhouse for 12 to 14 days, after which time all species were compared to controls and visually evaluated. Plant response ratings, summarized in Table C, are based on a scale of 0 to 100 where 0 is no effect and 100 is complete control. A dash (-) response means no test result.

[2] = system: woolly cupgrass; experiment: Test C pre-/postemergence herbicide test; type: in vivo, Eriochloa villosa; conditions: preemergence
From the text: as §1, §2

[3] = system: large crabgrass; experiment: Test C pre-/postemergence herbicide test; type: in vivo, Digitaria sanguinalis; conditions: preemergence
From the text: as §1, §2

[4] = system: giant foxtail; experiment: Test C pre-/postemergence herbicide test; type: in vivo, Setaria faberi; conditions: preemergence
From the text: as §1, §2

[5] = system: bermudagrass; experiment: Test C pre-/postemergence herbicide test; type: in vivo, Cynodon dactylon; conditions: preemergence
From the text: as §1, §2

[6] = system: goosegrass; experiment: Test C pre-/postemergence herbicide test; type: in vivo, Eleusine indica; conditions: preemergence
From the text: as §1, §2

[7] = system: ducksalad; experiment: Test C flooded paddy test; type: in vivo, Heteranthera limosa
[8] = system: redroot pigweed; experiment: Test A pre-/postemergence herbicide test; type: in vivo, Amaranthus retroflexus; conditions: for pest or weed control at 125 g/ha / pest or weed control at 500 g/ha: Amaranthus retroflexus, 240 h, read-out: Pigweed plant response rating; for pest or weed control at 125 g/ha: 125 g ai/ha
How it was run: (§3)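 Seeds sown in sandy loam received a preemergence directed soil spray of compound in non-phytotoxic solvent with surfactant; postemergence plants (2–10 cm, one- to two-leaf stage) were sprayed to runoff at the same time. After ~10 days in greenhouse, injury was rated visually versus untreated controls (0 = no effect, 100 = complete control).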

[9] = system: giant foxtail; experiment: Test A pre-/postemergence herbicide test; type: in vivo, Setaria faberi; conditions: for pest or weed control at 125 g/ha / pest or weed control at 500 g/ha: Setaria faberi, 240 h, read-out: Foxtail, Giant plant response rating; for pest or weed control at 125 g/ha: 125 g ai/ha
How it was run: as §3

[10] = 500 g ai/ha, scale 0 to 100 (0 no effect, 100 complete control), visual, 12 to 14 days
[11] = 125 g ai/ha, scale 0 to 100 (0 no effect, 100 complete control)
[12] = 250 g ai/ha, scale of 0 to 100, 0 is no effect, 100 is complete control
[13] = 500 g ai/ha, visual rating after 12 to 14 days, scale 0 to 100 (0 no effect, 100 complete control)
[14] = Postemergence, 500 g ai/ha, 0 to 100 scale, 0 no effect, 100 complete control
[15] = Postemergence, 2000 g ai/ha, 0 to 100 scale, 0 no effect, 100 complete control
[16] = Preemergence, 2000 g ai/ha, visual rating, 0 to 100 scale (0 no effect, 100 complete control)
[17] = preemergence, 500 g ai/ha, visual injury, 0 to 100 scale (0 no effect, 100 complete control)
[18] = post-emergence, Postemergence, 0 to 100 scale, 0 no effect, 100 complete control
[19] = post-emergence, Postemergence, 500 g ai/ha, 0 to 100 scale, 0 no effect, 100 complete control
[20] = pre-emergence, preemergence, visual injury, 0 to 100 scale (0 no effect, 100 complete control)
[21] = pre-emergence, preemergence, 500 g ai/ha, visual injury, 0 to 100 scale (0 no effect, 100 complete control)

C=CCNC(=O)c1cccc(NC(=O)c2nn(C(C)(C)C)nc2CC)c1 [Compound 414]
Plant response rating, Pigweed ([1]; 62 g ai/ha, scale 0 to 100): 100
Plant response rating (0 = no effect, 100 = complete control), Pigweed ([1]; 125 g ai/ha): 100
Plant response rating, Pigweed [1, 10]: 100
Plant response rating, Cupgrass, Woolly ([2]; 62 g ai/ha, scale 0 to 100): 0
Plant response rating (0 = no effect, 100 = complete control), Cupgrass, Woolly ([2]; 125 g ai/ha): 80
Plant response rating, Cupgrass, Woolly ([2]; 250 g ai/ha, scale 0-100): 95
Plant response rating, Cupgrass, Woolly [2, 10]: 100
Plant response rating, Crabgrass, Large ([3]; 62 g ai/ha, scale 0 to 100): 100
Plant response rating (0 = no effect, 100 = complete control), Crabgrass, Large ([3]; 125 g ai/ha): 100
Plant response rating, Crabgrass, Large ([3]; 250 g ai/ha, scale 0-100): 100
Plant response rating, Crabgrass, Large [3, 10]: 100
Plant response rating, Foxtail, Giant ([4]; 62 g ai/ha, scale 0 to 100): 75
Plant response rating (0 = no effect, 100 = complete control), Foxtail, Giant ([4]; 125 g ai/ha): 95
Plant response rating, Foxtail, Giant ([4]; 250 g ai/ha, scale 0-100): 100
Plant response rating, Foxtail, Giant [4, 10]: 100
Plant response rating, Bermudagrass ([5]; 62 g ai/ha, scale 0 to 100, 0 no effect, 100 complete control): 100
Plant response rating (0 = no effect, 100 = complete control), Bermudagrass ([5]; 125 g ai/ha): 100
Plant response rating, Bermudagrass ([5]; 250 g ai/ha, scale 0-100): 100
Plant response rating, Bermudagrass [5, 10]: 100
Plant response rating, Goosegrass ([6]; 62 g ai/ha, scale 0 to 100): 95
Plant response rating (0 = no effect, 100 = complete control), Goosegrass ([6]; 125 g ai/ha): 100
Plant response rating, Goosegrass ([6]; 250 g ai/ha, scale 0-100): 100
Plant response rating, Goosegrass [6, 10]: 100

C=CCN(C)C(=O)c1cccc(NC(=O)c2cc(C(C)(C)C)nn2CC)c1 [Compound 285]
Ducksalad plant response rating ([7]; 62 g ai/ha, scale 0 to 100): 45
Ducksalad plant response rating [7, 11]: 80
Ducksalad plant response rating [7, 12]: 90
Plant response rating, Ducksalad [7, 13]: 90
Pigweed plant response rating [8, 14]: 80
Plant response rating, Pigweed [8, 15]: 100
Pigweed plant response rating [8, 16]: 100
Pigweed plant response rating [8, 17]: 100
Foxtail, Giant plant response rating [9, 14]: 25
Plant response rating, Foxtail, Giant [9, 15]: 55
Foxtail, Giant plant response rating [9, 16]: 90
Foxtail, Giant plant response rating [9, 17]: 60

C=Cn1nc(C(C)(C)C)cc1C(=O)Nc1cccc(C(C)=O)c1 [Compound 127]
Ducksalad plant response rating ([7]; 62 g ai/ha, scale 0 to 100 (0 no effect, 100 complete control)): 0
Ducksalad plant response rating [7, 11]: 15
Ducksalad plant response rating [7, 12]: 20
Plant response rating, Ducksalad [7, 13]: 80
Pigweed plant response rating [8, 14]: 40
Plant response rating, Pigweed [8, 15]: 50
Pigweed plant response rating [8, 16]: 50
Pigweed plant response rating [8, 17]: 40
Foxtail, Giant plant response rating [9, 14]: 30
Plant response rating, Foxtail, Giant [9, 15]: 30
Foxtail, Giant plant response rating ([9]; Preemergence, 500 g ai/ha, visual rating, 0 to 100 scale (0 no effect, 100 complete control)): 20
Foxtail, Giant plant response rating [9, 16]: 35

CCOC(=O)c1cccc(NC(=O)c2cc(C(C)(C)C)nn2C)n1 [Compound 313]
Ducksalad plant response rating ([7]; 16 g ai/ha, scale 0 to 100): 0
Ducksalad plant response rating ([7]; 31 g ai/ha, scale 0 to 100): 0
Ducksalad plant response rating ([7]; 62 g ai/ha, scale 0 to 100): 0
Ducksalad plant response rating [7, 11]: 30
Pigweed plant response rating [8, 14]: 100
Plant response rating, Pigweed [8, 15]: 100
Pigweed plant response rating [8, 16]: 100
Pigweed plant response rating [8, 17]: 95
Foxtail, Giant plant response rating [9, 14]: 70
Plant response rating, Foxtail, Giant [9, 15]: 80
Foxtail, Giant plant response rating [9, 16]: 90
Foxtail, Giant plant response rating [9, 17]: 75

CCn1nc(C(C)(C)C)c(F)c1C(=O)Nc1cc(C(=O)N(C)C)ccc1F [Compound 276, N-[5-[(dimethylamino)carbonyl]-2-fluorophenyl]-3-(1,1-dimethylethyl)-1-ethyl-4-fluoro-1H-pyrazole-5-carboxamide]
pest or weed control at 62 g/ha ([7]; Heteranthera limosa, 62 g ai/ha, scale 0 to 100, read-out: Ducksalad plant response rating): 0%
pest or weed control at 125 g/ha ([7]; Heteranthera limosa, 125 g ai/ha, scale 0 to 100 (0 no effect, 100 complete control), read-out: Ducksalad plant response rating): 20%
pest or weed control at 250 g/ha ([7]; Heteranthera limosa, 250 g ai/ha, scale of 0 to 100, 0 is no effect, 100 is complete control, read-out: Ducksalad plant response rating): 70%
pest or weed control at 500 g/ha ([7]; Heteranthera limosa, 500 g ai/ha, visual rating after 12 to 14 days, scale 0 to 100 (0 no effect, 100 complete control), read-out: Plant response rating, Ducksalad): 85%

CCNC(=O)c1ccc(F)c(NC(=O)c2c3c(nn2CC)C(C)(C)CC3)c1 [Compound 353]
Ducksalad plant response rating ([7]; 62 g ai/ha, scale 0 to 100): 0
Ducksalad plant response rating [7, 11]: 0
Ducksalad plant response rating [7, 12]: 30
Plant response rating, Ducksalad [7, 13]: 30

CCNC(=O)c1cccc(NC(=O)c2nc(C(C)(C)C)nn2CC)c1 [Compound 446, 3-(1,1-dimethylethyl)-1-ethyl-N-[3-[(ethylamino)carbonyl]phenyl]-1H-1,2,4-triazole-5-carboxamide]
pest or weed control at 125 g/ha [8, 18]: 65%
pest or weed control at 500 g/ha [8, 19]: 80%
pest or weed control at 125 g/ha [8, 20]: 90%
pest or weed control at 500 g/ha [8, 21]: 100%
pest or weed control at 125 g/ha [9, 18]: 75%
pest or weed control at 500 g/ha [9, 19]: 90%
pest or weed control at 125 g/ha [9, 20]: 70%
pest or weed control at 500 g/ha [9, 21]: 95%
